{"source": "ChEMBL document CHEMBL3885881", "about": "“DrugMatrix”", "species": "Rattus norvegicus", "experiment": "DrugMatrix - Regimen: Daily Repeat", "format": "toxicity, organism-based, Sprague-Dawley", "set-up": "regimen Daily Repeat, gender Male, age 6-8 weeks", "details": "in vivo, po, 17 mg/kg, route oral GAVAGE, dose level High, vehicle .5 % CMC; for ABSOLUTE BASOPHIL / ABSOLUTE EOSINOPHIL / ABSOLUTE LYMPHOCYTE / ABSOLUTE MONOCYTE / ABSOLUTE SEGMENTED NEUTROPHIL / BASOPHIL / EOSINOPHIL / ERYTHROCYTE COUNT / HEMATOCRIT / HEMOGLOBIN / LEUKOCYTE COUNT / LYMPHOCYTE / MEAN CORPUSCULAR HEMOGLOBIN / MEAN CORPUSCULAR HEMOGLOBIN CONCENTRATION / MEAN CORPUSCULAR VOLUME / MONOCYTE / NEUTROPHIL / NUCLEATED RED BLOOD CELLS / PLATELET COUNT: tissue Blood; for ALANINE AMINOTRANSFERASE / ALBUMIN / ALKALINE PHOSPHATASE / ASPARTATE AMINOTRANSFERASE / BLOOD UREA NITROGEN / CARBON DIOXIDE / CHLORIDE / CHOLESTEROL / CREATININE / GLUCOSE / LACTATE DEHYDROGENASE / LIPASE / PHOSPHORUS / POTASSIUM / SODIUM / TOTAL BILIRUBIN / TOTAL PROTEIN / URIC ACID: tissue Plasma"}
{"smiles": "COc1ccc(C(=O)Nc2c(Cl)cncc2Cl)cc1OC1CCCC1", "values": [{"measurement": "ABSOLUTE BASOPHIL", "setting": "120 h, time 5 day", "result": 0, "unit": "CELLS/uL"}, {"measurement": "ABSOLUTE EOSINOPHIL", "setting": "120 h, time 5 day", "result": 84.67, "unit": "CELLS/uL"}, {"measurement": "ABSOLUTE LYMPHOCYTE", "setting": "120 h, time 5 day", "result": 11281, "unit": "CELLS/uL"}, {"measurement": "ABSOLUTE MONOCYTE", "setting": "120 h, time 5 day", "result": 472.33, "unit": "CELLS/uL"}, {"measurement": "ABSOLUTE SEGMENTED NEUTROPHIL", "setting": "120 h, time 5 day", "result": 1195.33, "unit": "CELLS/uL"}, {"measurement": "BASOPHIL", "setting": "120 h, time 5 day", "result": 0, "unit": "%"}, {"measurement": "EOSINOPHIL", "setting": "120 h, time 5 day", "result": 0.67, "unit": "%"}, {"measurement": "ERYTHROCYTE COUNT", "setting": "120 h, time 5 day", "result": 6, "unit": "x10E6/uL"}, {"measurement": "HEMATOCRIT", "setting": "120 h, time 5 day", "result": 36.73, "unit": "%"}, {"measurement": "HEMOGLOBIN", "setting": "120 h, time 5 day", "result": 13.33, "unit": "G/DL"}, {"measurement": "LEUKOCYTE COUNT", "setting": "120 h, time 5 day", "result": 13.03, "unit": "x10E3/uL"}, {"measurement": "LYMPHOCYTE", "setting": "120 h, time 5 day", "result": 86.33, "unit": "%"}, {"measurement": "MEAN CORPUSCULAR HEMOGLOBIN", "setting": "120 h, time 5 day", "result": 22.23, "unit": "pg"}, {"measurement": "MEAN CORPUSCULAR HEMOGLOBIN CONCENTRATION", "setting": "120 h, time 5 day", "result": 36.3, "unit": "G/DL"}, {"measurement": "MEAN CORPUSCULAR VOLUME", "setting": "120 h, time 5 day", "result": 61.23, "unit": "fL"}, {"measurement": "MONOCYTE", "setting": "120 h, time 5 day", "result": 3.67, "unit": "%"}, {"measurement": "NEUTROPHIL", "setting": "120 h, time 5 day", "result": 9.33, "unit": "%"}, {"measurement": "NUCLEATED RED BLOOD CELLS", "setting": "120 h, time 5 day", "result": "0 /100WBC"}, {"measurement": "PLATELET COUNT", "setting": "120 h, time 5 day", "result": 1070.67, "unit": "x10E3/uL"}, {"measurement": "ALANINE AMINOTRANSFERASE", "setting": "120 h, time 5 day", "result": 64, "unit": "u/L"}, {"measurement": "ALBUMIN", "setting": "120 h, time 5 day", "result": 4.1, "unit": "G/DL"}, {"measurement": "ALKALINE PHOSPHATASE", "setting": "120 h, time 5 day", "result": 400, "unit": "u/L"}, {"measurement": "ASPARTATE AMINOTRANSFERASE", "setting": "120 h, time 5 day", "result": 136.33, "unit": "u/L"}, {"measurement": "BLOOD UREA NITROGEN", "setting": "120 h, time 5 day", "result": 13, "unit": "mg/dL"}, {"measurement": "CARBON DIOXIDE", "setting": "120 h, time 5 day", "result": 34.33, "unit": "mmol/L"}, {"measurement": "CHLORIDE", "setting": "120 h, time 5 day", "result": 101, "unit": "MEQ/L"}, {"measurement": "CHOLESTEROL", "setting": "120 h, time 5 day", "result": 65.33, "unit": "mg/dL"}, {"measurement": "CREATININE", "setting": "120 h, time 5 day", "result": 0.19, "unit": "mg/dL"}, {"measurement": "GLUCOSE", "setting": "120 h, time 5 day", "result": 166.33, "unit": "mg/dL"}, {"measurement": "LACTATE DEHYDROGENASE", "setting": "120 h, time 5 day", "result": 276.33, "unit": "u/L"}, {"measurement": "LIPASE", "setting": "120 h, time 5 day", "result": 8.33, "unit": "u/L"}, {"measurement": "PHOSPHORUS", "setting": "120 h, time 5 day", "result": 11.3, "unit": "mg/dL"}, {"measurement": "POTASSIUM", "setting": "120 h, time 5 day", "result": 6.12, "unit": "MEQ/L"}, {"measurement": "SODIUM", "setting": "120 h, time 5 day", "result": 149.43, "unit": "MEQ/L"}, {"measurement": "TOTAL BILIRUBIN", "setting": "120 h, time 5 day", "result": 0.2, "unit": "mg/dL"}, {"measurement": "TOTAL PROTEIN", "setting": "120 h, time 5 day", "result": 6.63, "unit": "G/DL"}, {"measurement": "URIC ACID", "setting": "120 h, time 5 day", "result": 1.5, "unit": "mg/dL"}, {"measurement": "ABSOLUTE BASOPHIL", "setting": "[…], time 14 day", "result": 0, "unit": "CELLS/uL"}, {"measurement": "ABSOLUTE EOSINOPHIL", "setting": "[…], time 14 day", "result": 107.5, "unit": "CELLS/uL"}, {"measurement": "ABSOLUTE LYMPHOCYTE", "setting": "[…], time 14 day", "result": 9595.25, "unit": "CELLS/uL"}, {"measurement": "ABSOLUTE MONOCYTE", "setting": "[…], time 14 day", "result": 1138.5, "unit": "CELLS/uL"}, {"measurement": "ABSOLUTE SEGMENTED NEUTROPHIL", "setting": "[…], time 14 day", "result": 8133.75, "unit": "CELLS/uL"}, {"measurement": "BASOPHIL", "setting": "[…], time 14 day", "result": 0, "unit": "%"}, {"measurement": "EOSINOPHIL", "setting": "[…], time 14 day", "result": 0.5, "unit": "%"}, {"measurement": "ERYTHROCYTE COUNT", "setting": "[…], time 14 day", "result": 6.06, "unit": "x10E6/uL"}, {"measurement": "HEMATOCRIT", "setting": "[…], time 14 day", "result": 34.55, "unit": "%"}, {"measurement": "HEMOGLOBIN", "setting": "[…], time 14 day", "result": 12.95, "unit": "G/DL"}, {"measurement": "LEUKOCYTE COUNT", "setting": "[…], time 14 day", "result": 18.98, "unit": "x10E3/uL"}, {"measurement": "LYMPHOCYTE", "setting": "[…], time 14 day", "result": 60.25, "unit": "%"}, {"measurement": "MEAN CORPUSCULAR HEMOGLOBIN", "setting": "[…], time 14 day", "result": 21.4, "unit": "pg"}, {"measurement": "MEAN CORPUSCULAR HEMOGLOBIN CONCENTRATION", "setting": "[…], time 14 day", "result": 37.5, "unit": "G/DL"}, {"measurement": "MEAN CORPUSCULAR VOLUME", "setting": "[…], time 14 day", "result": 57.05, "unit": "fL"}, {"measurement": "MONOCYTE", "setting": "[…], time 14 day", "result": 5, "unit": "%"}, {"measurement": "NEUTROPHIL", "setting": "[…], time 14 day", "result": 34.25, "unit": "%"}, {"measurement": "NUCLEATED RED BLOOD CELLS", "setting": "[…], time 14 day", "result": "0 /100WBC"}, {"measurement": "PLATELET COUNT", "setting": "[…], time 14 day", "result": 1068, "unit": "x10E3/uL"}, {"measurement": "ALANINE AMINOTRANSFERASE", "setting": "[…], time 14 day", "result": 48.25, "unit": "u/L"}, {"measurement": "ALBUMIN", "setting": "[…], time 14 day", "result": 3.22, "unit": "G/DL"}, {"measurement": "ALKALINE PHOSPHATASE", "setting": "[…], time 14 day", "result": 273, "unit": "u/L"}, {"measurement": "ASPARTATE AMINOTRANSFERASE", "setting": "[…], time 14 day", "result": 67, "unit": "u/L"}, {"measurement": "BLOOD UREA NITROGEN", "setting": "[…], time 14 day", "result": 14.25, "unit": "mg/dL"}, {"measurement": "CARBON DIOXIDE", "setting": "[…], time 14 day", "result": 33.75, "unit": "mmol/L"}, {"measurement": "CHLORIDE", "setting": "[…], time 14 day", "result": 100.5, "unit": "MEQ/L"}, {"measurement": "CHOLESTEROL", "setting": "[…], time 14 day", "result": 56, "unit": "mg/dL"}, {"measurement": "CREATININE", "setting": "[…], time 14 day", "result": 0.24, "unit": "mg/dL"}, {"measurement": "GLUCOSE", "setting": "[…], time 14 day", "result": 131, "unit": "mg/dL"}, {"measurement": "LACTATE DEHYDROGENASE", "setting": "[…], time 14 day", "result": 107.75, "unit": "u/L"}, {"measurement": "LIPASE", "setting": "[…], time 14 day", "result": 9, "unit": "u/L"}, {"measurement": "PHOSPHORUS", "setting": "[…], time 14 day", "result": 8.28, "unit": "mg/dL"}, {"measurement": "POTASSIUM", "setting": "[…], time 14 day", "result": 5.54, "unit": "MEQ/L"}, {"measurement": "SODIUM", "setting": "[…], time 14 day", "result": 148.15, "unit": "MEQ/L"}, {"measurement": "TOTAL BILIRUBIN", "setting": "[…], time 14 day", "result": 0.18, "unit": "mg/dL"}, {"measurement": "TOTAL PROTEIN", "setting": "[…], time 14 day", "result": 6.12, "unit": "G/DL"}, {"measurement": "URIC ACID", "setting": "[…], time 14 day", "result": 0.62, "unit": "mg/dL"}]}
